Entries after “also recorded” stand apart in the source; their conditions may differ.
How the values were obtained:
[1] = system: neuronal uptake of noradrenaline into slices of cerebral cortex; assay: Inhibition of noradrenaline uptake in brain slices; type: cell-based, rat; conditions: for Potency Ratio (imipramine = 1.0) Noradrenaline: inhibition of noradrenaline uptake, rat cerebral cortex slices, relative to imipramine = 1.0; for Inhibition of noradrenaline uptake (in words): qualitative
Excerpt: Concentration-response curves are obtained both for the test compound and for the standard agent, imipramine. The potency of each test compound is expressed in proportion to that of imipramine. Thus, the potency ratio for the test compound= [formula]

[2] = system: uptake of 5-hydroxytryptamine in slices of cerebral cortex; assay: Inhibition of 5-hydroxytryptamine uptake in brain slices; type: cell-based, rat; conditions: for Potency Ratio (imipramine = 1.0) 5-Hydroxytryptamine: inhibition of 5-hydroxytryptamine uptake, rat cerebral cortex slices, relative to imipramine = 1.0; for Inhibition of 5-hydroxytryptamine uptake (in words): qualitative
Procedure: The effects of test compounds on the neuronal uptake of noradrenaline into slices of cerebral cortex prepared from rat brain is determined according to the method described by Snyder, Green and Hendley, Kinetics of H^3 -norepihephrine accumulation into slices from different regions of the rat brain (J. Pharm. exp. Therap. 164: 90-102) (1968). The effects of test compounds on the uptake of 5-hydroxytryptamine is obtained in a similar manner except that H^3 5-hydroxytryptamine is used in place of H^3 noradrenaline. Concentration-response curves are obtained both for the test compound and for the standard agent, imipramine. The potency of each test compound is expressed in proportion to that of imipramine. Thus, the potency ratio for the test compound= [formula]

hypertensive rats [3] = assay: Anti-hypertensive activity in deoxycorticosterone acetate hypertensive rats; type: in vivo, rat; conditions: for Reduction of blood pressure (in words): hypertensive rats, p.o., qualitative
Procedure: Female rats are rendered hypertensive by unilateral nephrectomy and the s.c. implantation of a pellet containing 30 mg of deoxycorticosterone acetate. The drinking water is replaced by normale saline ad lib for the first four weeks following preparation. Blood pressure stabilise at a hypertensive level after 6 weeks. Systolic pressure is measured indirectly before dosing with a test compound using an E and M pneumatic pulse transducer and a Devices MX2 recorder. Groups of 4 rats are dosed orally with suspensions or solutions of the test compound in 0.5% hydroxypropyl-methyl-cellulose 0.9% saline vehicle. Blood pressures are recorded again at 2, 6 and 24 hours and the results, expressed as a percentage of the pre-dose values compared with those of a similar group of rats receiving vehicle alone.

hypertensive rats [4] = assay: Another procedure for determining anti-hypertensive activity in hypertensive rats; type: in vivo, rat; conditions: qualitative
mice (CF-1) = assay: CNS Activity (Effect on Behaviour of Mice); type: in vivo, mouse (CF-1)
Procedure: The test compounds are administered orally to three mice (CF-1 14 to 24 grams) at each of the following doses: 400, 127, 40 and 12.7 mg/kg. The animals are watched for two hours during which time signs of general stimulation (i.e. increased spontaneous motor activity, hyperactivity on tactile stimulation, twitching), general depression (i.e. decreased spontaneous motor activity, decreased respiration) and autonomic activity (i.e. miosis, mydriasis, diarrhoea) are noted.

mice = assay: Motor Activity (Exploratory behaviour in mice); type: in vivo, mouse; conditions: i.p., qualitative
Procedure: The test compounds were administered i.p. to mice (3 groups of 4 per dose) at time 0. Seventy minutes later the animals were transferred to square boxes placed beneath the detector heads of Aktograph activity monitors. The exploratory activity of the mice was counted over the following 20 minute period.

[5] = system: post-synaptic 5HT receptor; assay: 5HT Antagonism in Vitro (isolated rat ileum); type: cell-based
[6] = 50 mg/kg p.o., 2 hr after dosing
[7] = 50 mg/kg p.o., 6 hr after dosing
[8] = 50 mg/kg p.o., 24 hr after dosing
[9] = 10 mg/kg p.o., 2 hr after dosing
[10] = 10 mg/kg p.o., 6 hr after dosing
[11] = 10 mg/kg p.o., 24 hr after dosing
[12] = 25 mg/kg p.o., 2 hr after dosing
[13] = 25 mg/kg p.o., 6 hr after dosing
[14] = 25 mg/kg p.o., 24 hr after dosing
[15] = mice, oral, watched for two hours

O=C(NC(=O)c1ccccc1)NC1CCN(Cc2c[nH]c3ccccc23)CC1 [Compound I, 1-[1-(indol-3-ylmethyl)piperid-4-yl]-3-benzoyl urea]
Potency Ratio (imipramine = 1.0) Noradrenaline [1]: 0.06
Inhibition of noradrenaline uptake (in words) [1]: weak inhibitors of noradrenaline uptake
Potency Ratio (imipramine = 1.0) 5-Hydroxytryptamine [2]: 10.0
Inhibition of 5-hydroxytryptamine uptake (in words) [2]: potent inhibitors of 5HT uptake
BP (systolic blood pressure) (hypertensive rats [3]; [6]): 90 % control
HR (heart rate) (hypertensive rats [3]; [6]): 101 % control
BP (systolic blood pressure) (hypertensive rats [3]; [7]): 102 % control
HR (heart rate) (hypertensive rats [3]; [7]): 98 % control
BP (systolic blood pressure) (hypertensive rats [3]; [8]): 106 % control
HR (heart rate) (hypertensive rats [3]; [8]): 84 % control
Reduction of blood pressure (in words) (hypertensive rats [3]): without significant activity; also recorded: does not induce marked CNS depression in animals or significantly reduce the blood pressure of hypertensive rats
Anti-hypertensive activity (in words) (hypertensive rats [4]): moderate activity
CNS depression / signs of sedation (in words) (mice (CF-1); mouse, in vivo): does not induce marked CNS depression in animals
Lowest Dose to induce effect: Decreased activity (mice (CF-1); mouse, in vivo, po, 120 min): 400 mg/kg p.o.
Lowest Dose to induce effect: Slight weakness (mice (CF-1); mouse, in vivo, po, 120 min): 400 mg/kg p.o.
Effect on exploratory behaviour (in words) (mice): virtually without effect
5HT antagonism: effect on responses of isolated rat ileum to 5-hydroxytryptamine ([5]; 10^-6 M, isolated rat ileum): the responses to the subsequent administration of 5HT were not affected
Direct effect on the isolated rat ileum preparation ([5]; 10^-6 M, isolated rat ileum): caused the preparation to relax
Antagonism of the post-synaptic 5HT receptor in vitro (in words) ([5]; in vitro, summary statement): does not antagonise the post-synaptic 5HT receptor in vitro

O=C(NC(=O)c1ccccc1)NC1CCN(CCc2c[nH]c3ccccc23)CC1 [Compound II, 1-benzoyl-3-[1-(2-[3-indolyl]ethyl)piperid-4-yl]urea]
Potency Ratio (imipramine = 1.0) Noradrenaline [1]: 0.2
Inhibition of noradrenaline uptake (in words) [1]: weak inhibitors of noradrenaline uptake
Potency Ratio (imipramine = 1.0) 5-Hydroxytryptamine [2]: 8.0
Inhibition of 5-hydroxytryptamine uptake (in words) [2]: potent inhibitors of 5HT uptake
BP (systolic blood pressure) (hypertensive rats [3]; [9]): 64 % control
HR (heart rate) (hypertensive rats [3]; [9]): 109 % control
BP (systolic blood pressure) (hypertensive rats [3]; [10]): 82 % control
HR (heart rate) (hypertensive rats [3]; [10]): 96 % control
BP (systolic blood pressure) (hypertensive rats [3]; [11]): 99 % control
HR (heart rate) (hypertensive rats [3]; [11]): 97 % control
BP (systolic blood pressure) (hypertensive rats [3]; [12]): 49 % control
HR (heart rate) (hypertensive rats [3]; [12]): 119 % control
BP (systolic blood pressure) (hypertensive rats [3]; [13]): 52 % control
HR (heart rate) (hypertensive rats [3]; [13]): 104 % control
BP (systolic blood pressure) (hypertensive rats [3]; [14]): 79 % control
HR (heart rate) (hypertensive rats [3]; [14]): 97 % control
BP (systolic blood pressure) (hypertensive rats [3]; [6]): 51 % control
HR (heart rate) (hypertensive rats [3]; [6]): 105 % control
BP (systolic blood pressure) (hypertensive rats [3]; [7]): 51 % control
HR (heart rate) (hypertensive rats [3]; [7]): 90 % control
BP (systolic blood pressure) (hypertensive rats [3]; [8]): 62 % control
HR (heart rate) (hypertensive rats [3]; [8]): 96 % control
Reduction of blood pressure (in words) (hypertensive rats [3]): marked reduction of blood pressure
Anti-hypertensive activity (in words) (hypertensive rats [4]): marked activity
CNS depression / signs of sedation (in words) (mice (CF-1); animals (mice), qualitative): induced signs of sedation at doses considerably lower than those of compound I required to induce a similar effect
Lowest Dose to induce effect: Ataxia (mice (CF-1); [15]): 127 mg/kg p.o.
Lowest Dose to induce effect: Catalepsy (mice (CF-1); [15]): 400 mg/kg p.o.
Lowest Dose to induce effect: Decreased activity (mice (CF-1); [15]): 4.0 mg/kg p.o.
Lowest Dose to induce effect: Decreased respiration (mice (CF-1); [15]): 400 mg/kg p.o.
Lowest Dose to induce effect: Ptosis (mice (CF-1); [15]): 40 mg/kg p.o.
Effect on exploratory behaviour (in words) (mice): marked reduction of exploratory behaviour
5HT antagonism: effect on responses of isolated rat ileum to 5-hydroxytryptamine ([5]; 10^-6 M, isolated rat ileum): non-competitive blockade

COc1ccc2[nH]cc(CN3CCC(NC(=O)NC(=O)c4ccccc4)CC3)c2c1 [Example 2, 1-[1-(5-Methoxyindol-3-ylmethyl)piperid-4-yl]-3-benzoylurea]
Potency Ratio (imipramine = 1.0) Noradrenaline [1]: inactive
Potency Ratio (imipramine = 1.0) 5-Hydroxytryptamine [2]: 3.2

O=C(NC(=O)c1cccs1)NC1CCN(Cc2c[nH]c3ccccc23)CC1 [Example 3, 1-[1-(Indol-3-ylmethyl)piperid-4-yl]-3-(2-thenoyl)-urea]
Potency Ratio (imipramine = 1.0) Noradrenaline [1]: 0.19
Potency Ratio (imipramine = 1.0) 5-Hydroxytryptamine [2]: 7.8

Cc1[nH]c2ccccc2c1CN1CCC(NC(=O)NC(=O)c2ccccc2)CC1 [Example 4, 1-Benzoyl-3-[1-([2-methylindol-3-yl]methyl)piperid-4-yl]urea]
Potency Ratio (imipramine = 1.0) Noradrenaline [1]: 0.16
Potency Ratio (imipramine = 1.0) 5-Hydroxytryptamine [2]: 0.8

O=C(NC(=O)c1ccccc1)NC1CCN(Cc2c[nH]c3ccc(O)cc23)CC1 [Example 5, 1-Benzoyl-3-[1-([5-hydroxyindol-3-yl]methyl)piperid-4-yl]urea]
Potency Ratio (imipramine = 1.0) Noradrenaline [1]: 0.2
Potency Ratio (imipramine = 1.0) 5-Hydroxytryptamine [2]: 12.3

COc1ccc(C(=O)NC(=O)NC2CCN(Cc3c[nH]c4ccccc34)CC2)cc1 [Example 6, 3-(4-methoxybenzoyl)-1-(1-[indol-3-ylmethyl]piperid-4-yl)urea]
Potency Ratio (imipramine = 1.0) Noradrenaline [1]: 0.06
Potency Ratio (imipramine = 1.0) 5-Hydroxytryptamine [2]: 5.0

O=C(NC(=O)c1ccc(F)cc1)NC1CCN(Cc2c[nH]c3ccccc23)CC1 [Example 8, 1-(4-Fluorobenzoyl)-3-(1-[indol-3-ylmethyl]piperid-4-yl)urea]
Potency Ratio (imipramine = 1.0) Noradrenaline [1]: 0.1
Potency Ratio (imipramine = 1.0) 5-Hydroxytryptamine [2]: 1.04

O=C(NC(=S)NC1CCN(Cc2c[nH]c3ccccc23)CC1)c1ccccc1 [Example 10, 1-[1-(Indol-3-ylmethyl)piperid-4-yl]-3-benzoylthiourea]
Potency Ratio (imipramine = 1.0) 5-Hydroxytryptamine [2]: 6.5

COc1cccc(C(=O)NC(=O)NC2CCN(Cc3c[nH]c4ccccc34)CC2)c1 [Example 11, 3-(3-Methoxybenzoyl)-1-(1-[indol-3-ylmethyl]piperid-4-yl)urea]
Potency Ratio (imipramine = 1.0) 5-Hydroxytryptamine [2]: 2.7
